From patent publication US11253554B2, “Bacterial profile to detect fungal taxa abundance in the gut” (Virginia Commonwealth University, priority 2016, dated 2022)
Blank lines part the entries; values can stand above or below the compound they belong to.

Columns and labels:
[1] = tested on: bacterial taxa (stool microbiota); test: Pre-PPI/post-PPI longitudinal study, stool 16S rRNA bacterial community analysis; assay type: in vivo, human; conditions: after 14 days of 40 mg omeprazole daily
Protocol: (§1) The impact of PPI on fungal parameters were analyzed from a prior trial in which 40 mg of omeprazole was administered daily for 14 days in compensated outpatients with cirrhosis and healthy controls, (Bajaj J S, et al. Am J Physiol Gastrointest Liver Physiol 2014 307:G951-G957).
(§2) For all these studies, Shannon diversity indices for both bacterial and fungal taxa as well as LEFSe comparisons (Segata N, et al. Genome Biol 2011 12:R60) at baseline and the end of study were performed and compared.
(§3) Microbial DNA were isolated from stool samples as previously described (Gillevet P, et al. Chem Biodivers 2010 7:1065-75). […] Amplicons for 96 samples were then sequenced together to generate >20,000×400 base reads per sample.
The Microbiome Analysis Center's Portal was used to organize raw data, track clinical metadata, and track analysis between the groups at baseline and/if they develop infections and are resampled. […] The taxonomic identity of reference sequences were determined using the RDP11 Classifier (Wang Q et al. Appl Environ Microbiol 2007 73:5261-7) and QIIME Pipeline. […] Changes in abundance of individual bacterial and fungal taxa were also analyzed using traditional univariate statistical methods. […]

[2] = tested on: fungal taxa (stool mycobiome); test: Pre-PPI/post-PPI longitudinal study, stool ITS1 fungal community analysis; assay type: in vivo, human; conditions: after 14 days of 40 mg omeprazole daily
Protocol: as §1, §2
Similarly, the ITS1 regions of the fungal 18S ribosomal RNA (rRNA) gene were sequenced on a PGM Ion Torrent Next-generation sequencer using Multitag fusion primers (ITS1F: 5′-[…]-3′ (SEQ ID NO:3); ITS2: 5′-[…]-3′ (SEQ ID NO:4)). Amplicons for 96 samples were sequenced together to generate >10,000×400 base reads per sample. The mycobiome is generally less diverse than the microbiome and thus required fewer reads to interrogate this community (Ghannoum M A, et al. PLoS pathogens 2010 6:e1000713). Greater than 1000 reads for bacteria and greater than 100 reads for fungi were used given the relatively lower abundance of fungal taxa as the lowest number chosen to be acceptable. […] A cutoff of 100 reads per sample was used as that was clearly above the negative control and is the break point in FIG. 6. […]

[3] = Pre-PPI/post-PPI longitudinal study, clinical course; assay type: in vivo, human; conditions: patients with cirrhosis; before 8.1±2.7, p=0.41
Protocol: The impact of PPI on fungal parameters were analyzed from a prior trial in which 40 mg of omeprazole was administered daily for 14 days in compensated outpatients with cirrhosis and healthy controls, (Bajaj J S, et al. Am J Physiol Gastrointest Liver Physiol 2014 307:[…]-[…]).

[4] = all subjects, 40 mg daily for 14 days, as reported in prior trial; cited from earlier work
[5] = tested on: bacterial taxa (stool microbiota); test: Cross-sectional study of outpatients with cirrhosis, bacterial Shannon diversity; assay type: in vivo, human; conditions: outpatients with cirrhosis on rifaximin without SBP prophylaxis; vs SBPP 1.3±0.5
Protocol: (§4) Healthy controls that were age-matched were enrolled with two sets of patients with cirrhosis, outpatients and inpatients. Healthy controls were outpatients without any chronic diseases or medications. Patients with cirrhosis were included who were diagnosed using liver biopsy, evidence of frank decompensation or radiological features of cirrhosis who were between 21 and 75 years. Patients who were unable to give consent or provide stool within 48 hours of admission, with alcohol misuse, alcoholic hepatitis, on antifungal medications and with gastrointestinal bleeding episodes within 6 weeks were excluded. Also excluded were those undergoing HCV eradication or those on probiotics within the last 3 months. […]
as §3
The Microbiome Analysis Center's Portal was used to organize raw data, track clinical metadata, and track analysis between the groups at baseline and/if they develop infections and are resampled. […] The taxonomic identity of reference sequences were determined using the RDP11 Classifier (Wang Q et al. Appl Environ Microbiol 2007 73:5261-7) and QIIME Pipeline. […]

[6] = tested on: fungal taxa (stool mycobiome); test: Cross-sectional study of outpatients with cirrhosis, fungal Shannon diversity; assay type: in vivo, human; conditions: outpatients with cirrhosis on rifaximin without SBP prophylaxis; vs SBPP 0.83±0.60
Protocol: as §4
Similarly, the ITS1 regions of the fungal 18S ribosomal RNA (rRNA) gene were sequenced on a PGM Ion Torrent Next-generation sequencer using Multitag fusion primers (ITS1F: 5′-[…]-3′ (SEQ ID NO:3); ITS2: 5′-[…]-3′ (SEQ ID NO:4)). Amplicons for 96 samples were sequenced together to generate >10,000×400 base reads per sample. The mycobiome is generally less diverse than the microbiome and thus required fewer reads to interrogate this community (Ghannoum M A, et al. PLoS pathogens 2010 6:e1000713). Greater than 1000 reads for bacteria and greater than 100 reads for fungi were used given the relatively lower abundance of fungal taxa as the lowest number chosen to be acceptable. […]

MELD score after therapy [3]: 7.9±3.5
Compound: COc1ccc2[nH]c([S+]([O-])Cc3ncc(C)c(OC)c3C)nc2c1 (centres unmarked) [omeprazole]
bacterial diversity (Shannon index) post ([1]; healthy controls, pre 1.88±0.16, p=0.004): 1.63±0.22
bacterial diversity (Shannon index) post ([1]; patients with cirrhosis, pre 1.89±0.25, p=0.05): 1.54±0.34
fungal diversity (Shannon index) post ([2]; healthy controls, pre 1.92±0.48, p=0.46): 1.73±0.61
fungal diversity (Shannon index) post ([2]; patients with cirrhosis, pre 1.64±0.34, p=0.39): 1.45±0.38
tolerability [4]: able to tolerate

Compound: CO[C@H]1/C=C/O[C@@]2(C)Oc3c(C)c(O)c4c(O)c(c5c(nc6cc(C)ccn65)c4c3C2=O)NC(=O)/C(C)=C\C=C\[C@H](C)[C@H](O)[C@@H](C)[C@@H](O)[C@@H](C)[C@H](OC(C)=O)[C@@H]1C [rifaximin]
bacterial diversity (Shannon index) [5]: 1.32±0.51
fungal diversity (Shannon index) [6]: 0.77±0.77
